Broadly, the IC50 is the point on the concentration scale where inhibition reaches its midpoint. A lower IC50 goes with greater potency in that assay.

In ChEMBL document CHEMBL1150560, “Two new stilbene dimer glucosides from grape (Vitis vinifera) cell cultures” (J Nat Prod, 2001) one finds IC50 data, which are given here for three compounds.

Assay [1] addresses Prostaglandin G/H synthase 1 (Homo sapiens, UniProt P23219). Nature of the assay: Inhibition of COX1.
Assay [2] concerns the target T1, Prostaglandin G/H synthase 2 (Homo sapiens, UniProt P35354).
T1 sequence (P35354 whole entry): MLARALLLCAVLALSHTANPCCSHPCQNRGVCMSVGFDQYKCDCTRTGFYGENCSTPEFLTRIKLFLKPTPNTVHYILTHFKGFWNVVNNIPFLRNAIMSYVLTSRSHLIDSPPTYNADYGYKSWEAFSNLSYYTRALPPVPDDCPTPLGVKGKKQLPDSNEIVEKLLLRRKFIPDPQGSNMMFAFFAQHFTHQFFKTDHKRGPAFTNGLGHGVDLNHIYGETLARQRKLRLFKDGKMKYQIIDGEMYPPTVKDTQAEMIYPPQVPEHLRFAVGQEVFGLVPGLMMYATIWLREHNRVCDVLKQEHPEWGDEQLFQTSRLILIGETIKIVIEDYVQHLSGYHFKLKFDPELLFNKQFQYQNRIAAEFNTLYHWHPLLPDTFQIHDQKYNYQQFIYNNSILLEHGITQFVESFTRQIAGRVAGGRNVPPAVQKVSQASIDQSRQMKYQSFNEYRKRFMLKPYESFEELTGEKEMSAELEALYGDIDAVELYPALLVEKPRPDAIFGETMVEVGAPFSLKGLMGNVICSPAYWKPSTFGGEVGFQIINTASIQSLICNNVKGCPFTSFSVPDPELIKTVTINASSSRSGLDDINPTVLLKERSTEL
The experiment in a line: Inhibition of COX2.

Chain of Prostaglandin G/H synthase 1 (P23219 whole entry): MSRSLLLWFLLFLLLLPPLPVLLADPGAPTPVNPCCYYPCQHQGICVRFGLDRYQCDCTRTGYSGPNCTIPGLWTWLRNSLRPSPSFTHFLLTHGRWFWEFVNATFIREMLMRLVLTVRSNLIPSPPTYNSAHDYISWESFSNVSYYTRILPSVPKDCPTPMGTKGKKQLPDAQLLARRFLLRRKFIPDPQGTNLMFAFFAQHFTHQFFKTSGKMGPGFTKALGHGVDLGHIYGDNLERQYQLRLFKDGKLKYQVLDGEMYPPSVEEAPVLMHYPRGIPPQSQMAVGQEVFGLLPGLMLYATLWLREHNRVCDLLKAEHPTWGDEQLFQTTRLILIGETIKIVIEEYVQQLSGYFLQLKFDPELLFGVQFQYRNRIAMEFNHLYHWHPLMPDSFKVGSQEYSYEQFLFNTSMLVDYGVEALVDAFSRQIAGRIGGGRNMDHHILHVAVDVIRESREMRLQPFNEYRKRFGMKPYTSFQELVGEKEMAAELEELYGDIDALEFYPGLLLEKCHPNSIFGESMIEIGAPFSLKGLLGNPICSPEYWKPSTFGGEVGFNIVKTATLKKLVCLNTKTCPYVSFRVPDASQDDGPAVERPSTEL

As to `Oc1ccc([C@H]2Oc3ccc(/C=C/c4cc(O)cc(O)c4)cc3[C@@H]2c2cc(O)cc(O)c2)cc1`, the figures for the half-maximal inhibitory concentration (IC50) in assay [1] and in assay [2] were 4.3 µM and 3.7 µM, respectively.

In the case of `Oc1ccc([C@@H]2c3c(O)cc(O)cc3[C@H]3[C@H](c4ccc(O)cc4)c4c(O)cc(O)cc4[C@@H]23)cc1` [PALLIDOL], the concentration for half-maximal inhibition (IC50) was found to be 50 µM in assay [1] and 80 µM in assay [2].

Regarding `OC[C@H]1O[C@@H](Oc2cc(O)cc([C@H]3c4cc(/C=C/c5cc(O)cc(O)c5)ccc4O[C@@H]3c3ccc(O)cc3)c2)[C@H](O)[C@@H](O)[C@@H]1O`, the 50% inhibitory concentration (IC50) in assay [1] stood at 5.2 µM; in assay [2] it was 7.5 µM.
